The structures appear in SMILES notation. “And” between values parts separate entries of the source, which are not always exact repeats. Equal values may be shown once. Bounds are passed on as bounds.

The subject of the assay is SYO-1 complex spheroid growth, percent test/control. Put plainly: Anticancer human tumor SYO-1 cell line growth inhibition [Asc].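 On all read-outs here: compound exposure lasted 7 days after spheroids grew 3 days.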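 On viability, T/C: 100% = DMSO vehicle control viability.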 The note with it: for viability, T/C: stronger effect = lower value. How it is done:
Multicellular complex tumor spheroid response to apoptosis pathway targeting inhibitors Alrizomadlin, Pelcitoclax, and Dasminapant in combination with a variety of drugs and investigational agents in selected tumor cell lines
The MDM2 inhibitor alrizomadlin, the Bcl-2/Bcl-xL inhibitor pelcitoclax, and the IAPs inhibitor dasminapant were evaluated both individually and in combination with standard of care and investigational anticancer small molecules within a complex spheroid model of solid tumors. . Complex spheroids include a stromal component modeled by human endothelial cells (HUVEC) and fibroblasts modeled by human mesenchymal stem cells (MSCs). The concentration ranges selected for each drug and investigational agent were based upon clinically achievable concentrations if the clinical Cmax of the agent was known.
Compounds. The drugs and investigational agents: alrizomadlin (APG-115; NSC831270), pelcitoclax (APG-1252; NSC835773), dasminapant (APG-1387;NSC834197), TAK-243 (NSC785004), copanlisib (NSC809693), olaparib (NSC753686), talazoparib (NSC767125), cobimetinib (NSC 768068), eltanexor (KPT-8602, NSC 794443), abemaciclib (NSC 768073), sotorasib (NSC818433), adagrasib (NSC 831453), MRTX-1133 (NSC 836407), Iadademestat (ORY1001, NSC 806812), and RMC-4630 (NSC839698), were obtained from the NCI Developmental Therapeutics Program Chemical Repository. The FDA-approved anticancer drug set is available from the Developmental Therapeutics Program at https://dtp.cancer.gov/organization/dscb/obtaining/available plates.htm. […] The stock solutions were prepared in dimethyl sulfoxide (DMSO, Sigma-Aldrich, St. Louis, MO, cat. D2650) at 800-fold the tested concentration and stored at -70 degrees C prior to their use. All drugs and investigational agents were tested over a range starting from a high concentration at or near the clinical Cmax and decreasing in half-log increments. If the clinical Cmax for an agent had not been determined, the highest concentration tested was 10 microM.
The patient-derived cancer (PDC) cell lines include five colon adenocarcinomas: 186277-243-T-J2-PDC, 616215-338-R-J1-PDC, 439559-082-T-J2-PDC, 463943-066-T-J2-PDC, and 519858-162-T-J1-PDC; three pancreatic carcinomas: 323965-272-R-J2-PDC, 521955-158-R6-J3-PDC, and 521955-158-R2-J5-PDC; two uterine sarcomas: 327498-152-R-J2-PDC and 993429-296-R-J1-PDC; two rhabdomyosarcomas: 755483-174-R-J1-PDC and 772245-204-R-J1-PDC; two soft tissue sarcomas: 126254-015-R-J1-PDC and 494315-158-R-J1-PDC; two malignant fibrous histiocytomas: 317291-083-R-J1-PDC and 596521-263-R-J1-PDC; two breast carcinomas: 171881-019-R-J1-PDC and 885512-296-R-J2-PDC; and one ovarian carcinoma: 6556581-035-R-J-PDC were obtained from the NCI PDMR, (https://pdmr.cancer.gov). The established cell lines HSSY-2 synovial sarcoma (RRID:CVCL 8719), SYO-1 synovial sarcoma (RRID:CVCL_7146), MPNST malignant peripheral neural sheath tumor were obtained from the Sloan Kettering Institute. The following established cell lines were purchased from the American Type Culture Collection (ATCC, Manassas, VA), Sor the received from the NCI repository:, PANC-1 pancreatic carcinoma (CRL-1469, RRID:CVCL_0480), OVCAR-5 ovarian carcinoma (RRID:CVCL_1628), OVCAR-8 ovarian carcinoma (RRID:CVCL_1629), , MCF-7 breast carcinoma (CRL-12584, RRID:CVCL_0031), MDA-MB-231 breast carcinoma (CRL-12532, RRID:CVCL_0062), NCI-H1876 small cell lung carcinoma (CRL-5902, RRID:CVCL_1503), NCI-H510A small cell lung carcinoma (HTB-184, RRID:CVCL_1565), NCI-H1417 (CRL-5869, RRID:CVCL_1469), and NCI-H196 small cell lung carcinoma (CRL-5823, RRID:CVCL_1509). Dr. Peter Houghton (Greehey Children's Cancer Research Institute, University of Texas Health Science Center, San Antonio, TX) provided Rh-18 rhabdomyosarcoma (RRID:CVCL_1659). Pooled donor human umbilical vein endothelial cells (HUVEC, Lonza, cat. CC-2519) and human mesenchymal stem cells (hMSC, Lonza, cat. PT-2501) were purchased from Lonza (Walkersville, MD).
Cell Culture. […]

The mark [1] stands for this setting: compound alone, run of 11/07/2022.

Regarding `C#Cc1c(F)ccc2cc(O)cc(-c3ncc4c(N5CC6CCC(C5)N6)nc(OCC56CCCN5CC(F)C6)nc4c3F)c12` (centres undefined), the viability, T/C (compound 0.0316 µM) is 111% and 98.5% and 108%; the viability, T/C (compound 0.1 µM) was 95.5% and 92.2% and 96.9%; the viability, T/C (compound 0.316 µM) was 108% and 95.5% and 110%; the viability, T/C (compound 1 µM) was 98.9% and 101% and 109%; the viability, T/C (compound 3.16 µM) was 111% and 117% and 105%; the viability, T/C (compound 10 µM) was 105% and 97.4% and 103%. The half-inhibitory concentration (IC50) (curve of compound) was above 10 µM.
Regarding `C=C(F)C(=O)N1CCN(c2nc(OCC3CCCN3C)nc3c2CCN(c2cccc4cccc(Cl)c24)C3)CC1CC#N` (centres undefined), the viability, T/C runs as follows: (compound 0.0316 µM) 107% and 98.8% and 99.1%; (compound 0.1 µM) 102% (2×) and 96.3%; (compound 0.316 µM) 97.5% and 101% and 100%; (compound 1 µM) 95.2% and 101% and 113%; (compound 3.16 µM) 97.3% and 90.3% and 92.2%; (compound 10 µM) 0.28% and 0.79% and 0.39%. Moreover, under “curve of compound”, the IC50 is 5.54 µM and 5.31 µM and 5.37 µM.
`C=CC(=O)N1CCN(c2nc(=O)n(-c3c(C)ccnc3C(C)C)c3nc(-c4c(O)cccc4F)c(F)cc23)C(C)C1` (centres undefined): the viability, T/C runs as follows: (compound 0.0316 µM) 100% and 96.9% and 116%; (compound 0.1 µM) 108% and 98.8% and 106%; (compound 0.316 µM) 104% (2×) and 99.7%; (compound 1 µM) 103% (2×) and 104%; (compound 3.16 µM) 98.7% and 95.2% and 101%; (compound 10 µM) 94.3% and 87.2% and 89.7%. For the same molecule, the IC50 (curve of compound) was above 10 µM.
With `CCN1C(C(=O)NC23CCC(C(=O)O)(CC2)CC3)C(c2cccc(Cl)c2F)C2(C(=O)Nc3cc(Cl)ccc32)C12CCCCC2` (centres undefined), the viability, T/C was 103% [middle of 9 runs] (compound 0.00949 µM); 99.3% [middle of 9 runs] (compound 0.03 µM); 25.9% [middle of 9 runs] (compound 0.3 µM); 3.45% [middle of 9 runs] (compound 0.949 µM); 1.23% [middle of 9 runs] (compound 3 µM). The IC50 is 189 nM [middle of 7 runs] under setting [1]; 0.142 µM and 0.178 µM (curve of compound).
For `CCN1CCN(Cc2ccc(Nc3ncc(F)c(-c4cc(F)c5nc(C)n(C(C)C)c5c4)n3)nc2)CC1`, the viability, T/C was 103% (2×) and 101% (compound 0.00316 µM); 99.9% and 103% and 110% (compound 0.01 µM); 107% and 106% and 109% (compound 0.0316 µM); 114% and 118% and 115% (compound 0.1 µM); 115% and 128% and 112% (compound 0.316 µM); 106% and 111% and 112% (compound 1 µM). In addition, where the note is “curve of compound”, the IC50 was above 1 µM.
Take `CNC(C)C(=O)NC1CN(S(=O)(=O)c2cccc(S(=O)(=O)N3CCC4CCC(C(=O)NC(c5ccccc5)c5ccccc5)N4C(=O)C(NC(=O)C(C)NC)C3)c2)CCC2CCC(C(=O)NC(c3ccccc3)c3ccccc3)N2C1=O` (centres undefined): the viability, T/C by setting is: (compound 0.00316 µM) 109% and 90.1% and 99.2%; (compound 0.01 µM) 102% [middle of 14 runs]; (compound 0.0316 µM) 98.2% [middle of 14 runs]; (compound 0.316 µM) 98.7% [middle of 14 runs]; (compound 1 µM) 96.6% [middle of 14 runs]. Further, the IC50 was above 1 µM (compound alone, run of 10/24/2022); above 1 µM (compound alone, run of 11/15/2022); above 1 µM (curve of compound).
Consider `COc1c(OCCCN2CCOCC2)ccc2c3n(c(=NC(=O)c4cnc(N)nc4)nc12)CCN3`, for which the viability, T/C is, setting by setting: (compound 0.00316 µM) 111% and 102% and 109%; (compound 0.01 µM) 105% and 112% and 114%; (compound 0.0316 µM) 95.3% and 108% and 113%; (compound 0.1 µM) 95.4% and 101% and 107%; (compound 0.316 µM) 76.1% and 87.7% and 90.5%; (compound 1 µM) 40.2% and 46.1% and 63.6%. Further, where the note is “curve of compound”, the concentration for half-maximal inhibition (IC50) was 0.741 µM and 0.9 µM and > 1 µM.
`Cc1c(S(C)(=O)=O)c(-c2cc(F)cc(N3CCN(c4ccc(NS(=O)(=O)c5ccc(NC(CCN6CCC(C(=O)OCCCP(=O)(O)O)CC6)CSc6ccccc6)c(S(=O)(=O)C(F)(F)F)c5)cc4)CC3)c2)c(-c2ccc(Cl)cc2)n1C(C)C` (centres undefined): the viability, T/C is 102% [middle of 7 runs] (compound 0.0316 µM); 100% [middle of 7 runs] (compound 0.1 µM); 96.5% [middle of 7 runs] (compound 0.316 µM); 90.6% [middle of 7 runs] (compound 1 µM); 88.6% [middle of 7 runs] (compound 3.16 µM); 79% [middle of 7 runs] (compound 10 µM). For the same molecule, under setting [1], the IC50 is above 10 µM.
For `Cc1nc(N2CCC3(CC2)COC(C)C3N)c(CO)nc1Sc1ccnc(N)c1Cl` (centres undefined), the viability, T/C (compound 0.00949 µM) was 107% and 98.7% and 112%; the viability, T/C (compound 0.03 µM) was 112% and 94% and 111%; the viability, T/C (compound 0.0949 µM) was 107% and 116% and 103%; the viability, T/C (compound 0.3 µM) is 108% and 109% (2×); the viability, T/C (compound 0.949 µM) is 112% and 114% and 107%; the viability, T/C (compound 3 µM) is 103% and 100% and 109%. Further, for the setting “curve of compound”, the 50% inhibitory concentration (IC50) is above 3 µM.
With `Cn1ncnc1[C@H]1c2n[nH]c(=O)c3cc(F)cc(c23)N[C@@H]1c1ccc(F)cc1`, the viability, T/C was 105% and 109% and 104% (compound 0.000316 µM); 103% and 106% and 95.2% (compound 0.001 µM); 104% and 97.3% and 107% (compound 0.00316 µM); 87.3% and 95.5% and 98.1% (compound 0.01 µM); 53.5% and 74.9% and 64.4% (compound 0.0316 µM); 15% and 91.9% and 12.5% (compound 0.1 µM). Besides, the IC50 (curve of compound) is 0.0348 µM and > 0.1 µM and 0.0435 µM.
For the molecule `NC(=O)C(=Cn1cnc(-c2cc(C(F)(F)F)cc(C(F)(F)F)c2)n1)c1cncnc1`, the viability, T/C runs as follows: (compound 0.000949 µM) 97.3% and 93.8% and 106%; (compound 0.003 µM) 98.8% and 101% and 104%; (compound 0.00949 µM) 97.4% and 98% and 95.6%; (compound 0.03 µM) 96.9% and 95.8% and 107%; (compound 0.0949 µM) 95.9% and 94.2% and 99.5%; (compound 0.3 µM) 13.3% and 16.5% and 42.3%. The IC50 (curve of compound) is 0.18 µM and 0.183 µM and 0.257 µM.
`NC1CCC(NC2CC2c2ccccc2)CC1` (centres undefined): the viability, T/C is, setting by setting: (compound 0.000316 µM) 108% and 106% and 112%; (compound 0.001 µM) 102% and 97% and 97.1%; (compound 0.00316 µM) 90.9% and 95.4% and 93.3%; (compound 0.01 µM) 94.7% and 89.3% and 92.9%; (compound 0.0316 µM) 91.9% and 96.6% and 88.2%; (compound 0.1 µM) 90.8% and 84.5% and 86.5%. Moreover, the IC50 (curve of compound) is above 0.1 µM.
Take `O=C(c1cc(Cc2n[nH]c(=O)c3ccccc23)ccc1F)N1CCN(C(=O)C2CC2)CC1`: the viability, T/C reads like this: (compound 0.0316 µM) 96.5% and 98.2% and 111%; (compound 0.1 µM) 91.4% and 91.9% and 103%; (compound 0.316 µM) 102% and 99.6% and 101%; (compound 1 µM) 96.7% and 105% and 95.2%; (compound 3.16 µM) 38% and 49.1% and 73.5%; (compound 10 µM) 6.76% and 6.7% and 10.1%. Besides, the IC50 (curve of compound) is 2.5 µM and 3.1 µM and 4.81 µM.
As for `O=C(c1ccc(F)c(F)c1Nc1ccc(I)cc1F)N1CC(O)([C@@H]2CCCCN2)C1`, the viability, T/C runs as follows: (compound 0.00316 µM) 105% and 97.6% and 106%; (compound 0.01 µM) 104% and 97% and 105%; (compound 0.0316 µM) 103% (2×) and 102%; (compound 0.1 µM) 108% (2×) and 102%; (compound 0.316 µM) 111% and 99.2% and 96.4%; (compound 1 µM) 104% and 106% and 101%. In addition, the IC50 (curve of compound) is above 1 µM.

The term viability, T/C denotes the result in the treated group divided by that in the control group, in per cent. Broadly, the IC50 is the concentration that inhibits the measured activity by half.

Values taken from PubChem BioAssay AID1963432 (Molecular Pharmacology Branch, DTP, NCI, 2024).
